# Data taken from ChEMBL document CHEMBL5325414, “Novel neuroprotective pyromeconic acid derivatives with concurrent anti-Aβ deposition, anti-inflammatory, and anti-oxidation properties for treatment of Alzheimer's disease” (Eur J Med Chem, 2023).
# Active and inactive are the calls of the source. The calls are words filed in the database; no cut-off is given here.
# Experiments:
# Mus musculus [1] = experiment: In vivo antiinflammatory activity in scopolamine induced cognitive impaired ICR mouse assessed as decrease in IL-6 levels in cortex; format: functional, organism-based
# [2] = Half life in Sprague-Dawley rat at 15 mg/kg, IG; format: ADME, organism-based; details: in vivo, po
# Mus musculus [3] = experiment: Neuroprotective effect in scopolamine induced cognitively impaired mouse assessed as […] of amyloid beta plaque deposition at 20 mg/kg by ELISA analysis; format: functional, organism-based
# Mus musculus [4] = experiment: Anti alzheimer activity in scopolamine induced anxiety in ICR mouse assessed as relieved anxiety pretreated with scopolamine at 3 mg/kg, ip for 31 days followed by compound addition at 20 mg/kg, po at day 7 to 31; format: functional, organism-based; details: time 25.0 day
# Mus musculus [5] = experiment: In vivo effect on HO-1 expression in scopolamine induced cognitive impaired mouse assessed as reversal of NRF2 signalling in hippocampus treated at 20 mg/kg by immunoblot analysis; format: functional, organism-based
# [6] = target: T1, Amyloid-beta precursor protein (Homo sapiens, UniProt P05067); experiment: Inhibition of amyloid beta (1 to 42) (unknown origin) self aggregation assessed as decrease in number of amyloid beta fibrils at 50 uM for 24 hrs
# [7] = target: T1, Amyloid-beta precursor protein; experiment: Inhibition of Fe3+ induced of amyloid beta (1 to 42) aggregation (unknown origin)
# [8] = Drug concentration in plasma of Sprague-Dawley rat at 15 mg/kg, IG measured after 0.083 hrs; format: ADME, organism-based; details: po
# Mus musculus [9] = experiment: Neuroprotective effect in scopolamine induced cognitively impaired mouse assessed as decrease in neuronal damage in CA1 region by measuring increase in neuronal nuclear antigen level at hippocampus at 20 mg/kg by immunoblot analysis; format: functional, organism-based
# BV-2 [10] = experiment: Effect of amyloid beta (1 to 42) indued apoptosis in mouse BV-2 cells assessed as necrotic cells at 10 uM measured by propidium iodide staining based flow cytometric analysis (reference value: 5.72%); format: functional
# [11] = MRT(0 to t) in Sprague-Dawley rat at 15 mg/kg, IG; format: ADME, organism-based; details: in vivo, po
# Mus musculus [12] = experiment: In vivo antiinflammatory activity in scopolamine induced cognitive impaired ICR mouse assessed as decrease in GFAP levels in cortex; format: functional, organism-based
# [13] = Drug concentration in hippocampus of Sprague-Dawley rat at 15 mg/kg, IG measured after 0.5 hrs; format: ADME, organism-based; details: po, read-out: Drug uptake
# Mus musculus [14] = experiment: In vivo antiinflammatory activity in scopolamine induced cognitive impaired ICR mouse assessed as decrease in Iba1 levels in hippocampus by immunoblot analysis; format: functional, organism-based
# [15] = AUC(0 to t) in Sprague-Dawley rat at 15 mg/kg, IG; format: ADME, organism-based; parameters: dose 15 mg/kg, route ig; details: in vivo, po
# [16] = Drug concentration in hippocampus of Sprague-Dawley rat at 15 mg/kg, IG measured after 0.167 hrs; format: ADME, organism-based; details: po, read-out: Drug uptake
# BV-2 [17] = experiment: Antiinflammatory activity in LPS induced mouse BV-2 cells decrease in release of […] at 5 uM by […] (reference value: 100%); format: functional
# [18] = target: T1, Amyloid-beta precursor protein; experiment: Inhibition of amyloid beta (1 to 42) (unknown origin) self aggregation assessed as disaggregation
# BV-2 [19] = experiment: Effect on H2O2 induced reactive oxygen species in mouse BV-2 cells assessed as reduction of ROS generation at 20 uM by fluorescence microscopic analysis relative to control; format: functional; parameters: scale not given: the % may be the effect or the level left
# Mus musculus [20] = experiment: Neuroprotective effect in scopolamine induced cognitively impaired mouse assessed as reversal of amyloid beta plaque deposition at 20 mg/kg by immunohistochemistry staining analysis; format: functional, organism-based
# [21] = Acute toxicity in mouse assessed as histopathological change in liver at 2000 mg/kg, IG administered as single dose measured after 14 days measured by H and E staining analysis; format: organism-based; details: in vivo, po, 336 h, time 14 day
# Mus musculus [22] = experiment: In vivo effect on NRF2 expression in scopolamine induced cognitive impaired mouse assessed as reversal of NRF2 signalling in hippocampus treated at 20 mg/kg by immunofluorescence analysis; format: functional, organism-based
# [23] = Ratio of drug concentration in hippocampus to plasma of Sprague-Dawley rat at 15 mg/kg, IG measured after 0.5 hrs; format: ADME, organism-based; details: po
# [24] = Cmax in Sprague-Dawley rat at 15 mg/kg, IG; format: ADME, organism-based; parameters: dose 15 mg/kg, route ig; details: in vivo, po
# BV-2 [25] = experiment: Effect of amyloid beta (1 to 42) indued apoptosis in mouse BV-2 cells assessed as late apoptotic cells at 2.5 uM measured by propidium iodide staining based flow cytometric analysis (reference value: 6.88%); format: functional
# [26] = Acute toxicity in mouse assessed as histopathological change in spleen at 2000 mg/kg, IG administered as single dose measured after 14 days measured by H and E staining analysis; format: organism-based; details: in vivo, po, 336 h, time 14 day
# BV-2 [27] = experiment: Neuroprotective activity against amyloid beta (1 to 42) induced neurotoxicity in mouse BV-2 cells assessed as survival of cells at 10 uM treated for 24 hrs relative to control; format: functional
# Mus musculus [28] = experiment: Anti alzheimer activity in scopolamine induced anxiety in ICR mouse assessed as increase in discrimination ratio pretreated with scopolamine at 3 mg/kg, ip for 31 days followed by compound addition at 20 mg/kg, po at day 7 to 31 by novel object recognition test; format: functional, organism-based; details: time 25.0 day
# Mus musculus [29] = experiment: In vivo antiinflammatory activity in scopolamine induced cognitive impaired ICR mouse assessed as decrease in Iba1 levels in cortex; format: functional, organism-based
# [30] = target: T1, Amyloid-beta precursor protein; experiment: Inhibition of amyloid beta (1 to 42) (unknown origin) self aggregation assessed as shorter in amyloid fibrils compound addition at 50 uM after fibrilation for 24 hrs
# [31] = Drug concentration in plasma of Sprague-Dawley rat at 15 mg/kg, IG measured after 0.167 hrs; format: ADME, organism-based; details: po
# [32] = Metal chelating activity assessed as compound-Fe2+ complex formation by measuring shift at 2:1 at 50 uM in PBS buffer 7.4 by UV-vis spectrometric analysis
# BV-2 [33] = experiment: Effect of amyloid beta (1 to 42) indued apoptosis in mouse BV-2 cells assessed as late apoptotic cells at 10 uM measured by propidium iodide staining based flow cytometric analysis (reference value: 6.88%); format: functional
# [34] = Drug concentration in plasma of Sprague-Dawley rat at 15 mg/kg, IG measured after 0.5 hrs; format: ADME, organism-based; details: po
# Mus musculus [35] = experiment: Cognitive enhancement in scopolamine induced ICR alzheimer's disease mouse assessed as gain in body weight pretreated with scopolamine at 3 mg/kg, ip for 31 days followed by compound addition at 20 mg/kg, po at day 7 to 31; format: functional, organism-based; details: time 25.0 day
# [36] = Acute toxicity in mouse assessed as change in behaviour at 2000 mg/kg, IG administered as single dose measured after 14 days; format: organism-based; details: in vivo, po, 336 h, time 14 day
# Mus musculus [37] = experiment: Neuroprotective effect in scopolamine induced cognitively impaired mouse assessed as recovery of decreased Nissl bodies in CA1 region at hippocampus at 20 mg/kg by Nissl staining analysis; format: functional, organism-based
# [38] = Ratio of drug concentration in hippocampus to plasma of Sprague-Dawley rat at 15 mg/kg, IG measured after 1 hrs; format: ADME, organism-based; details: po
# BV-2 [39] = experiment: Effect of amyloid beta (1 to 42) indued apoptosis in mouse BV-2 cells assessed as early apoptotic cells at 2.5 uM measured by propidium iodide staining based flow cytometric analysis (reference value: 26.12%); format: functional
# [40] = Drug concentration in plasma of Sprague-Dawley rat at 15 mg/kg, IG measured after 1 hrs; format: ADME, organism-based; details: po
# [41] = Metal chelating activity assessed as compound-Ca2+ complex formation by optical shift at 50 uM in PBS buffer 7.4 by UV-vis spectrometric analysis
# T1 sequence (P05067 whole entry): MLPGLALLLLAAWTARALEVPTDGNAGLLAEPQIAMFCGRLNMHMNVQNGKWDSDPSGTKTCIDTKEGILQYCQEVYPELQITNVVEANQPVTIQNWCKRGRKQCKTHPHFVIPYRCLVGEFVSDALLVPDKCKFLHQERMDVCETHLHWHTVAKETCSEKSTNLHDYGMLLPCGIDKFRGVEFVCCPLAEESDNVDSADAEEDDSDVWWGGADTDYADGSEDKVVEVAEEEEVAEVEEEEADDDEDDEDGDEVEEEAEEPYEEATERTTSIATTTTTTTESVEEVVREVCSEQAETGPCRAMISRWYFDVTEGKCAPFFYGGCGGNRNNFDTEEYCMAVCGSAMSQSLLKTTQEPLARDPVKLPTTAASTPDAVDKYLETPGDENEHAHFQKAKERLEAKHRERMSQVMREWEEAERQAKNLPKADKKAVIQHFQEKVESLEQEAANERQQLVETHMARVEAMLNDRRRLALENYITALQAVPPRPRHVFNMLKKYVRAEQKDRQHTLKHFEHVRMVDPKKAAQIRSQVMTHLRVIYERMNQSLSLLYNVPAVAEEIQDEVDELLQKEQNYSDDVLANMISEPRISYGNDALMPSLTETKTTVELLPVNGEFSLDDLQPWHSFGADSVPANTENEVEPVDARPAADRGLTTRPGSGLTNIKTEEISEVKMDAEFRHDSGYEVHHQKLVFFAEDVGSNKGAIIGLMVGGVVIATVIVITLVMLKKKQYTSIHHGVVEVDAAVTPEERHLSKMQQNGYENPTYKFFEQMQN
structure (smiles),measurement,setting,value
O=c1ccoc(/C=C/c2ccc(O)c(O)c2)c1O,Activity,Mus musculus [1],Active
same,half-life,[2],14 h
same,Activity,Mus musculus [3],Active
same,Activity,Mus musculus [4],Active
same,Activity,Mus musculus [5],Active
same,inhibition,[6],Active
same,IC50,[7],9.68 µM
same,concentration at 0.083 h,[8],18.5 ng/mL
same,Activity,Mus musculus [9],Active
same,Activity,BV-2 [10],7.98%
same,MRT last,[11],6.36 h
same,Activity,Mus musculus [12],Active
same,concentration at 0.5 h,[13],5.4 ng/mL
same,Activity,Mus musculus [14],Active
same,AUC(0-t),[15],24.4 ng·h/mL
same,concentration at 0.167 h,[16],1.41 ng/mL
same,Nitric oxide release (% of LPS control),BV-2 [17],86.32%
same,IC50,[18],6.87 µM
same,Activity,BV-2 [19],45.48%
same,Activity,Mus musculus [20],Active
same,Activity,[21],Non-Toxic
same,Activity,Mus musculus [22],Active
same,Kp at 0.5 h,[23],2.27
same,Cmax,[24],14.4 ng/mL
same,Activity,BV-2 [25],10.2%
same,Activity,[26],Non-Toxic
same,Activity,BV-2 [27],75.5%
same,Activity,Mus musculus [28],Active
same,Activity,Mus musculus [29],Active
same,Activity,[30],Active
same,concentration at 0.167 h,[31],22.2 ng/mL
same,Activity,[32],Active
same,Activity,BV-2 [33],6.82%
same,concentration at 0.5 h,[34],2.68 ng/mL
same,Activity,Mus musculus [35],Active
same,Activity,[36],Non-Toxic
same,Activity,Mus musculus [37],Active
same,Kp at 1 h,[38],5.04
same,Activity,BV-2 [39],13.4%
same,concentration at 1 h,[40],1.77 ng/mL
same,Activity,[41],inactive
